{
  "source": "patent US7105679B2",
  "about": "“Heteroatom containing tetracyclic derivatives as selective estrogen receptor modulators” (priority 2001, dated 2006)",
  "key": {"[1]": {"tested_on": "MCF-7 cells", "experiment": "MCF-7 Cell Proliferation Assay (14C-thymidine, agonist and antagonist mode)", "type": "cell-based", "conditions": "Homo sapiens, number in brackets = number of tests, NA = no detected activity at test concentration; for EC50: MCF7, agonist mode; for IC50: MCF7, antagonist mode with 10 nM 17β-estradiol"}, "[2]": {"tested_on": "Ishikawa cells", "experiment": "Alkaline Phosphatase Assay in Human Endometrial Ishikawa Cells (agonist and antagonist mode)", "type": "cell-based", "conditions": "Homo sapiens, number in brackets = number of tests, NA = no detected activity at test concentration; for EC50: agonist mode; for IC50: antagonist mode with 10 nM 17β-estradiol"}, "[3]": {"biological_target": "T1, hER-β (Homo sapiens, UniProt Q92731)", "T1 construct": "purchased Panvera", "T1 sequence (Q92731 whole entry)": "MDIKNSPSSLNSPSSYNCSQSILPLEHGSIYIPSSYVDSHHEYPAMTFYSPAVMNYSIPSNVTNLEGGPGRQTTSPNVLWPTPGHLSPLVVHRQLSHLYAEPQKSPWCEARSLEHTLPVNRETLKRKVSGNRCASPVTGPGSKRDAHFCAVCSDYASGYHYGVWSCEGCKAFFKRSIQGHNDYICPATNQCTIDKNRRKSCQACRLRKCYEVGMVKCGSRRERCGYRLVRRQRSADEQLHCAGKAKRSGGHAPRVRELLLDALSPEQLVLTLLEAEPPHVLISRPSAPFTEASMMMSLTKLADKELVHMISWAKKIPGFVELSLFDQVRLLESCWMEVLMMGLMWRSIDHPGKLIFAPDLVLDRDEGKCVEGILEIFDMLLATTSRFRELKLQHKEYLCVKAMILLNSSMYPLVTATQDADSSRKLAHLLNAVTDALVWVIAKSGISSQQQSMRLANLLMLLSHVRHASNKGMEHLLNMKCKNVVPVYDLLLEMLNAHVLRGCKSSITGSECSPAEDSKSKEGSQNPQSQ", "experiment": "Estrogen Receptor β Fluorescence Polarization Assay (binding of Fluormone ES2)", "conditions": "fluorescence polarization binding, Fluormone ES2; number in brackets = No. of determinations; NA = no detected activity at test concentration; read-out: Estrogen Receptor β in μM (No.)", "excerpt": "This assay monitors binding of a fluorescent analog of estrogen (Fluormone ES2, Panvera) to the estrogen receptor. Plates are read in a fluorometer that can be set to polarization mode. A decrease in […] relative to vehicle control is an indication of binding of a compound to the receptor.\nIt is crucial to avoid introduction of air bubbles into the reaction in each well of the 96 well plate throughout this procedure. (Bubbles on the surface of the reaction disrupt light flow, affecting the polarization reading.) However, it is also crucial to effectively mix the reaction components upon addition to the well.\nOn ice, a 2× standard mixture of Assay Buffer (Panvera), 10 nM DTT and 40 nM ES2 was prepared. On ice, a 2× reaction mixture of Assay Buffer (Panvera), and 20 nM hER-β (Panvera) and 40 nM ES2 was also prepared.\nDilutions of test compound were prepared in 30% (v/v) dimethyl sulfoxide/50 mM HEPES, pH 7.5. At this point, the dilutions were 40× the final required concentration.\nThe standard mixture at 50 μL was then added to each well. The reaction mixture at 48 μL was added to all wells. The compound dilution at 2.5 μL was added to the appropriate wells. The reaction mixtures were mixed using a manual pipette, a roll of aluminum foil adhesive cover was placed on the plate and the plate incubated at room temperature for 1 hour."}, "[4]": {"biological_target": "T2, human estrogen receptor α (Homo sapiens, UniProt P03372)", "T2 construct": "purchased Panvera", "T2 sequence (P03372 1-595)": "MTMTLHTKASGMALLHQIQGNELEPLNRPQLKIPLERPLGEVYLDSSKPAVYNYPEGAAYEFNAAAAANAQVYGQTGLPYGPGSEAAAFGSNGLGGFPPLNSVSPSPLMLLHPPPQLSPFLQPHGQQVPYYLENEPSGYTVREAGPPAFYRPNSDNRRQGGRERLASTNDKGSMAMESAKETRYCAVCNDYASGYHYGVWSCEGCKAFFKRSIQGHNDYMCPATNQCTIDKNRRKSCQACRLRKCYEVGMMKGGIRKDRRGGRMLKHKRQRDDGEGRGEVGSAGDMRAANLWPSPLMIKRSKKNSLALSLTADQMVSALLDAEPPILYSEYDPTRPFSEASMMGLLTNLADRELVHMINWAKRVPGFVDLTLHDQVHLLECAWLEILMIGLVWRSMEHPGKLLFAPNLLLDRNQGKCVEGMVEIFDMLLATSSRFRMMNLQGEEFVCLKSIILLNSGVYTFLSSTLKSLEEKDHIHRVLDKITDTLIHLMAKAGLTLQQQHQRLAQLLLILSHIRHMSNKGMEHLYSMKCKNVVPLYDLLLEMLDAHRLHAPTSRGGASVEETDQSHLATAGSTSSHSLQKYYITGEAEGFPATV", "experiment": "Estrogen Receptor α Flash Plate Assay (binding of radiolabeled estrogen)", "conditions": "flash plate binding, 0.5 nM radiolabeled estrogen; number in brackets = No. of determinations; NA = no detected activity at test concentration; read-out: Estrogen Receptor α in μM (No.)"}},
  "data": [
    {"compound": "CC(C)(C)[Si](C)(C)Oc1ccc2c(c1)OCc1c-2c(=O)oc2cc(O[Si](C)(C)C(C)(C)C)ccc12", "values": [
      {"measurement": "melting point", "result": "150 to 151", "unit": "°C"}
    ]},
    {"compound": "CC(C)(C)[Si](C)(C)Oc1ccc2c(c1)OC(O)C1=C2COc2cc(O[Si](C)(C)C(C)(C)C)ccc21", "note": "(centres unmarked)", "values": [
      {"measurement": "melting point", "result": "188 to 190", "unit": "°C"}
    ]},
    {"compound": "CC(C)(C)[Si](C)(C)Oc1ccc2c(c1)OCc1c-2c(=O)oc2cc(F)ccc12", "values": [
      {"measurement": "melting point", "result": "197 to 198", "unit": "°C"}
    ]},
    {"compound": "CC(C)(C)[Si](C)(C)Oc1ccc2c(c1)OCC1=C2C(O)Oc2cc(F)ccc21", "note": "(centres unmarked)", "values": [
      {"measurement": "melting point", "result": "166 to 167", "unit": "°C"}
    ]},
    {"compound": "O=c1oc2cc(O)ccc2c2c1-c1ccc(O)cc1OC2", "note": "[Compound 1, 2,8-Dihydroxy-11H-chromeno[4,3-c]chromen-5-one]", "values": [
      {"measurement": "EC50", "setting": "[1]", "result": 1200, "unit": "nM"},
      {"measurement": "IC50", "setting": "[1]", "result": "> 10000", "unit": "nM"},
      {"measurement": "melting point", "result": "> 350", "unit": "°C"},
      {"measurement": "EC50", "setting": "[2]", "result": 130, "unit": "nM"},
      {"measurement": "IC50", "setting": "[2]", "result": "> 10000", "unit": "nM"},
      {"measurement": "IC50", "setting": "[3]", "result": 0.061, "unit": "µM"},
      {"measurement": "IC50", "setting": "[4]", "result": 0.505, "unit": "µM"}
    ]},
    {"compound": "COc1ccc2c(c1)OCc1c-2c(=O)oc2cc(OC)ccc12", "note": "[Compound 2, 2,8-DiMethoxy-11H-chromeno[4,3-c]chromen-5-one]", "values": [
      {"measurement": "EC50", "setting": "[1]", "result": "> 10000", "unit": "nM"},
      {"measurement": "IC50", "setting": "[1]", "result": "> 10000", "unit": "nM"},
      {"measurement": "melting point", "result": "200 to 201", "unit": "°C"},
      {"measurement": "EC50", "setting": "[2]", "result": "> 10000", "unit": "nM"},
      {"measurement": "IC50", "setting": "[2]", "result": "> 10000", "unit": "nM"}
    ]},
    {"compound": "O=c1oc2cc(F)ccc2c2c1-c1ccc(O)cc1OC2", "note": "[Compound 37, 8-Fluoro-2-hydroxy-11H-chromeno[4,3-c]chromen-5-one]", "values": [
      {"measurement": "melting point", "result": "259 to 260", "unit": "°C"}
    ]},
    {"compound": "CC(C)(C)C(=O)Oc1ccc2c(c1)OC(C)(c1ccc(OCCCN3CCCCC3)cc1)C1=C2COc2cc(OC(=O)C(C)(C)C)ccc21", "note": "(centres unmarked) [Compound 43, 2,2-Dimethyl-propionic acid 8-(2,2-dimethyl-propionyloxy)-11-methyl-11-[4-(3-piperidin-1-yl-propoxy)-phenyl]-5,11-dihydro-chromeno[4,3-c]chromen-2-yl ester]", "values": [
      {"measurement": "EC50", "setting": "[1]", "result": "> 10000", "unit": "nM"},
      {"measurement": "IC50", "setting": "[1]", "result": "> 1000", "unit": "nM"},
      {"measurement": "EC50", "setting": "[2]", "result": "> 10000", "unit": "nM"},
      {"measurement": "IC50", "setting": "[2]", "result": 1600, "unit": "nM"},
      {"measurement": "IC50", "setting": "[3]", "result": 0.165, "unit": "µM"},
      {"measurement": "IC50", "setting": "[4]", "result": 0.62, "unit": "µM"}
    ]}
  ]
}
